Reference: EP0906100B1, “USE OF 5-HT 1A? RECEPTOR ANTAGONISTS FOR THE TREATMENT OF URINARY INCONTINENCE” (RECORDATI S.A., priority 1996, dated 1997)
Like-named read-outs stand apart in the source and are kept apart here.

Experiments:
α1-adrenergic receptor = assay: [3H]prazosin binding (α1-receptors), rat cerebral cortices; details: 0.35 nM [3H]prazosin, read-out: Binding affinity for the α1-adrenergic receptor, Ki
Procedure: [^3H]prazosin binding (α1-receptors):
Rat cerebral cortices were homogenized in 50 volumes of ice-cold 50 mM Tris-HCl pH 7.4. The homogenates were centrifuged at 48,000 x g for 10 minutes, and the pellets were resuspended in the same volume of ice-cold buffer, centrifuged, and resuspended two more times. The final pellets were resuspended in 100 volumes of 50 mM Tris-HCl, pH 7.4, containing 0.1 % ascorbic acid and 10 µM pargyline. […] Non-specific binding was determined in the presence of 10 µM phentolamine. The incubations were terminated by rapid filtration through Whatman GF/B filters using a Brandel cell harvester, after which the filters were washed with 3x3 ml of ice-cold buffer. The radioactivity retained on the filters was determined by liquid scintillation counting.

[1] = system: rhythmic bladder voiding contractions; assay: Volume-induced rhythmic bladder voiding contractions in anaesthetized rats; assay type: in vivo; details: for AMPLITUDE mm Hg before treatment / FREQUENCY No. contr./15 min before treatment: baseline; for AMPLITUDE mm Hg before treatment / AMPLITUDE mm Hg after treatment: animals with frequency reduction <50%; for AMPLITUDE mm Hg before treatment / FREQUENCY No. contr./15 min before treatment / AMPLITUDE mm Hg after treatment / FREQUENCY No. contr./15 min after treatment: mean±S.E.; for BLADDER CONTRACTIONS Disappearance time: duration of bladder quiescence, mean (S.E. in next cell); for ED (10 min disappearance of contractions) / ED50: Rattus norvegicus, iv; for ED (10 min disappearance of contractions): extrapolated dose inducing 10 min of disappearance of the contractions, linear regression
Procedure: Female Sprague Dawley rats weighing 225-275 g (Crl: CD° BR, Charles River Italia) were used. The animals were housed with free access to food and water and were maintained on a forced 12 h alternating light-dark cycle at 22-24°C for at least one week, except during the experiment. The activity on the rhythmic bladder voiding contractions was evaluated according to the method of Dray (J. Pharmcol. Methods, 13:157, 1985), with some modifications as in Guarneri (Phannacol. Res., 27:173, 1993). […] The catheter was tied in place with a ligature around the external urethral orifice and was connected with conventional pressure transducers (Statham P23 ID/P23 XL). […] The bladder was then filled via the recording catheter by incremental volumes of warm (37°C) saline until reflex bladder voiding contractions occurred (usually 0.8-1.5 ml). Two parameters were recorded from the cystometrogram: the frequency of voiding contractions, calculated by counting the number of peaks/15 min of observation, and the mean amplitude of these contractions (mean height of the peaks in mmHg) in the same time period. For intravenous (i. v. ) injection of bioactive compounds, a PE 50 polyethylene tubing filled with physiological saline was inserted into the jugular vein.
Bioactivity was assessed in individual animals (using 6-10 rats per dose), by recording the number and height of the peaks for 15 min after drug injection and comparing them with those previously recorded for 15 min after the intravenous administration of vehicle alone. […] The statistical significance of changes in frequency and amplitude before and after treatment was assessed by Student's t test for paired data. Changes showing a probability P<0.01 were considered significant.
An all-or-none criterion was also used to compare bioactivity in terms of ED50 values. Rats showing a treatment-related change of ≥30% relative to the basal value were considered to be positive. Quantal dose-response curves and ED50 values were evaluated by the method of Bliss (J. Pharm. Pharmacol., 11:192, 1938).
The rapid distension of the urinary bladder in urethane-anaesthetized rats produced a series of rhythmic bladder voiding contractions whose characteristics have been described (Maggie et al., Brain Res., 380, 83, 1986; Maggi, et al., J. Pharmacol. Exp. Ther., 230, 500, 1984). The frequency of these contractions is related to the sensory afferent arm of reflex micturition and to the integrity of the micturition centre, while their amplitude is a property of the efferent arm of the reflex (Maggi et al., J. Pharmacol. Meth., 15, 157, 1986; Maggi et al., Brain Res.. 415, 1, 1987; Maggi et al., Naun. Schmied. Arch. Pharmacol., 332, 276, 1986; Maggi et al., J. Urol., 136, 696, 1986).

[2] = i.v., inhibition of frequency of rhythmic bladder voidings (ED50)

Structure (SMILES)	Ki (α1-adrenergic receptor) [nM]	AMPLITUDE mm Hg before treatment ([1]; 1 µg/kg i.v. group) [mm Hg]	FREQUENCY No. contr./15 min before treatment ([1]; 1 µg/kg i.v. group) [No. contr./15 min]	AMPLITUDE mm Hg after treatment ([1]; 1 µg/kg i.v.) [mm Hg]	BLADDER CONTRACTIONS Disappearance time ([1]; 1 µg/kg i.v.) [min]	FREQUENCY No. contr./15 min after treatment ([1]; 1 µg/kg i.v.) [No. contr./15 min]	AMPLITUDE mm Hg before treatment ([1]; 3 µg/kg i.v. group) [mm Hg]	FREQUENCY No. contr./15 min before treatment ([1]; 3 µg/kg i.v. group) [No. contr./15 min]	AMPLITUDE mm Hg after treatment ([1]; 3 µg/kg i.v.) [mm Hg]	BLADDER CONTRACTIONS Disappearance time ([1]; 3 µg/kg i.v.) [min]	FREQUENCY No. contr./15 min after treatment ([1]; 3 µg/kg i.v.) [No. contr./15 min]	AMPLITUDE mm Hg before treatment ([1]; 10 µg/kg i.v. group) [mm Hg]	FREQUENCY No. contr./15 min before treatment ([1]; 10 µg/kg i.v. group) [No. contr./15 min]	AMPLITUDE mm Hg after treatment ([1]; 10 µg/kg i.v.) [mm Hg]	BLADDER CONTRACTIONS Disappearance time ([1]; 10 µg/kg i.v.) [min]	FREQUENCY No. contr./15 min after treatment ([1]; 10 µg/kg i.v.) [No. contr./15 min]	AMPLITUDE mm Hg before treatment ([1]; 30 µg/kg i.v. group) [mm Hg]	FREQUENCY No. contr./15 min before treatment ([1]; 30 µg/kg i.v. group) [No. contr./15 min]	AMPLITUDE mm Hg after treatment ([1]; 30 µg/kg i.v.) [mm Hg]	FREQUENCY No. contr./15 min after treatment ([1]; 30 µg/kg i.v.) [No. contr./15 min]	further results
COc1ccccc1N1CCN(CCN(C(=O)C2CCCCC2)c2ccccn2)CC1 [Compound A, N-{2-[4-(2-methoxyphenyl)-1-piperazinyl]-ethyl}-N-(2-pyridyl)-cyclohexanecarboxamide]	296	25.4±2.0	11.7±1.0	23.1±1.9	1.34	11.6±1.3	25.1±2.2	11.5±0.7	21.7±2.0	2.15	9.1±1.0	26.0±3.8	11.5±1.5	22.3±3.8	8.13	5.9±1.6	28.5±2.5	11.8±0.7	25.0±4.0	3.8±0.7	BLADDER CONTRACTIONS Disappearance time ([1]; 30 µg/kg i.v.): 8.87 min; AMPLITUDE mm Hg before treatment ([1]; 100 µg/kg i.v. group): 28.0±4.6 mm Hg; FREQUENCY No. contr./15 min before treatment ([1]; 100 µg/kg i.v. group): 12.0±0.9 No. contr./15 min; AMPLITUDE mm Hg after treatment ([1]; 100 µg/kg i.v.): 25.7±2.9 mm Hg; BLADDER CONTRACTIONS Disappearance time ([1]; 100 µg/kg i.v.): 12.56 min; FREQUENCY No. contr./15 min after treatment ([1]; 100 µg/kg i.v.): 4.1±1.1 No. contr./15 min; FREQUENCY No. contr./15 min before treatment ([1]; 300 µg/kg i.v. group): 9.5±0.6 No. contr./15 min; BLADDER CONTRACTIONS Disappearance time ([1]; 300 µg/kg i.v.): 13.37 min; FREQUENCY No. contr./15 min after treatment ([1]; 300 µg/kg i.v.): 2.2±0.5 No. contr./15 min; ED (10 min disappearance of contractions) [1]: 0.037 mg/kg; maximal change of amplitude of the rhythmic bladder voidings ([1]; i.v., no dose-dependence observed): about 13%
O=C(C1CCCCC1)N(CCN1CCN(c2cccc3[nH]ccc23)CC1)c1ccccn1 [Compound B, N-{2-[4-(4-Indolyl)-1-piperazinyl]-ethyl}-N-(2-pyridyl)-cyclohexanecarboxamide]	458	26.5±4.3	11.7±1.5	22.7±5.1	4.33	8.7±1.3	33.7±2.4	9.7±0.8	25.3±1.2	7.58	4.7±1.1	19.0	11.7±1.7	17.0	10.00	4.2±0.9	–	12.0±1.1	–	4.5±1.4	AMPLITUDE mm Hg before treatment ([1]; 0.3 µg/kg i.v. group): 31.0±3.7 mm Hg; FREQUENCY No. contr./15 min before treatment ([1]; 0.3 µg/kg i.v. group): 10.7±1.4 No. contr./15 min; AMPLITUDE mm Hg after treatment ([1]; 0.3 µg/kg i.v.): 27.7±4.1 mm Hg; BLADDER CONTRACTIONS Disappearance time ([1]; 0.3 µg/kg i.v.): 1.10 min; FREQUENCY No. contr./15 min after treatment ([1]; 0.3 µg/kg i.v.): 11.3±1.7 No. contr./15 min; BLADDER CONTRACTIONS Disappearance time ([1]; 30 µg/kg i.v.): 8.85 min; ED (10 min disappearance of contractions) [1]: 0.009 mg/kg; ED50 ([1]; read-out: ED50 FREQUENCY (and 95% confidence limits), i.v., quantal criterion (change ≥30% relative to basal value)): 0.001 mg/kg; fold more active than NAN-190 [1, 2]: 46 fold; fold more active than flavoxate [1, 2]: 2650 fold
CCN(CC)CC#CCOC(=O)C(O)(c1ccccc1)C1CCCCC1 (centres unmarked) [Oxybutynin, oxybutynin]	–	–	–	–	–	–	–	–	–	–	–	–	–	–	–	–	26.7±2.7	14.8±1.9	23.3±2.5	15.5±2.3	AMPLITUDE mm Hg before treatment ([1]; 100 µg/kg i.v. group): 25.0±3.7 mm Hg; FREQUENCY No. contr./15 min before treatment ([1]; 100 µg/kg i.v. group): 13.3±1.1 No. contr./15 min; AMPLITUDE mm Hg after treatment ([1]; 100 µg/kg i.v.): 18.7±2.7 mm Hg; FREQUENCY No. contr./15 min after treatment ([1]; 100 µg/kg i.v.): 14.7±1.0 No. contr./15 min; AMPLITUDE mm Hg before treatment ([1]; 300 µg/kg i.v. group): 20.9±1.7 mm Hg; FREQUENCY No. contr./15 min before treatment ([1]; 300 µg/kg i.v. group): 10.1±0.7 No. contr./15 min; AMPLITUDE mm Hg after treatment ([1]; 300 µg/kg i.v.): 13.6±0.8 mm Hg; FREQUENCY No. contr./15 min after treatment ([1]; 300 µg/kg i.v.): 8.8±0.8 No. contr./15 min; AMPLITUDE mm Hg before treatment ([1]; 1000 µg/kg i.v. group): 20.3±2.4 mm Hg; FREQUENCY No. contr./15 min before treatment ([1]; 1000 µg/kg i.v. group): 9.7±0.8 No. contr./15 min; AMPLITUDE mm Hg after treatment ([1]; 1000 µg/kg i.v.): 11.8±1.2 mm Hg; FREQUENCY No. contr./15 min after treatment ([1]; 1000 µg/kg i.v.): 9.5±0.8 No. contr./15 min; AMPLITUDE mm Hg before treatment ([1]; 3000 µg/kg i.v. group): 18.0±1.4 mm Hg; FREQUENCY No. contr./15 min before treatment ([1]; 3000 µg/kg i.v. group): 10.0±0.7 No. contr./15 min; AMPLITUDE mm Hg after treatment ([1]; 3000 µg/kg i.v.): 10.8±1.0 mm Hg; FREQUENCY No. contr./15 min after treatment ([1]; 3000 µg/kg i.v.): 9.9±1.5 No. contr./15 min; ED50 ([1]; read-out: ED50 AMPLITUDE (and 95% confidence limits)): 0.24 mg/kg
